target: T1, RORγ (Homo sapiens, UniProt P51449); experiment: Fluorescence resonance energy transfer (FRET) test, B-RORγ LBD / Biotin-SRC1; assay type: biochemical
T1 construct: The concentration of B-RORγ LBD was 40 nM
T1 sequence (P51449 269-508 limits assumed): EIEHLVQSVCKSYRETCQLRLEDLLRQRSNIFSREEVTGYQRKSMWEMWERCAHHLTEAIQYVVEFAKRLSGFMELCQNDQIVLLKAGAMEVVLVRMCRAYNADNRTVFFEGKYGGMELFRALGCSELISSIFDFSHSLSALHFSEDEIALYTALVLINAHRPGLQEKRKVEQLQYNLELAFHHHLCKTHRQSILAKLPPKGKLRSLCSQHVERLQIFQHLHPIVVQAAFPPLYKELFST
Method: Biological Example 1 Fluorescence Resonance Energy Transfer (FRET) Test
(1) Preparation of RORγ Test Buffer and 10 mM of DTT
100 mL of 1× Basic test buffer (HEPES (pH 7.4), 100 mM NaCl, 0.01% BSA) was prepared, and 154.25 mg of DTT was added. The mixture was well mixed.
(2) Preparation of Compound with Gradient Concentration
a. Standard compound was prepared: Standard compound was diluted with 100% DMSO to 2.5 mM, then diluted 3-fold with 11 serial dilutions to a final concentration of […];
b. Test compound was prepared referring to the standard compound.
(3) Preparation of 1× Protein Solution Mixture
(§1) a. Preparation of the desired amount of 2× B-RORγ LBD/SA-APC protein mixture: The concentration of B-RORγ LBD was 40 nM, and the concentration of SA-APC was 20 nM. They were mixed by gently inversion, and incubated at room temperature for 15 minutes. Then 400 nM of biotin was added. The mixture was mixed by gently inversion, and incubated at room temperature for 10 minutes;
as §1, with “b.” for “a.”, “Biotin-SRC1/SA-eu” for “B-RORγ LBD/SA-APC”, “Bioin-SRC1” for “B-RORγ LBD”, “SA-eu” for “SA-APC”, “200” for “400”
c. The protein mixtures prepared in step a and step b were mixed at a ratio of 1:1, and incubated at room temperature for 5 minutes;
d. 25 μL of the mixture from step c was added to the 384-well plate containing the test compound;
e. The mixture was centrifuged at 1000 rpm for one minute;
f. The mixture was incubated for 1 hour at room temperature.
(4) Data Collection and Calculation
After incubation at room temperature for 1 hour, the fluorescence values at 665 nm and 615 nm were measured with an EnVision plate reader, and the inhibition rate was calculated.
Inhibition rate %)=[(X−Min)/(Max−Min)]×100%
X is the fluorescence value ratio of “665/615” of the test compound; Min is the average value of “665/615” of the DMSO blank control; Max is the average value of “665/615” of the 10 μM SRC.

Going from CCS(=O)(=O)c1ccc([C@H](CCO)NC(=O)c2ccc(N3CC(Oc4ccc(OC(F)F)cc4)C[C@H]3COC(F)F)cc2)cc1 (stereo in doubt) [Example 114, 4-((2S,4S)-2-((difluoromethoxy)methyl)-4-(4-(difluoromethoxy)phenoxy)pyrrolidin-1-yl)-N—((S)-1-(4-(ethylsulfonyl)phenyl)-3-hydroxypropyl)benzamide] to CCS(=O)(=O)c1ccc([C@H](CO)NC(=O)c2ccc(N3C[C@H](Oc4ccc(C(F)(F)F)cc4)C[C@H]3COC(F)F)cc2)cc1 [Example 40], the IC50 rises from 2 nM to 25 nM (12-fold).

First: CCS(=O)(=O)c1ccc([C@H](CCO)NC(=O)c2ccc(N3CC(Oc4ccc(OC(F)(F)F)cc4)C[C@H]3COC(F)(F)F)cc2)cc1 (stereo in doubt) [Example 118, N—((S)-1-(4-(ethylsulfonyl)phenyl)-3-hydroxypropyl)-4-((2S,4S)-2-((trifluoromethoxy)methyl)-4-(4-(trifluoromethoxy)phenoxy)pyrrolidin-1-yl)benzamide]
Second: CCS(=O)(=O)c1ccc([C@H](CO)NC(=O)c2ccc(N3C[C@H](Oc4ccc(C(F)(F)F)cc4)C[C@H]3COCC(F)(F)F)cc2)cc1 [Example 30, N—((R)-1-(4-(ethylsulfonyl)phenyl)-2-hydroxyethyl)-4-((2S,4R)-2-((2,2,2-trifluoroethoxy)methyl)-4-(4-(trifluoromethyl)phenoxy)pyrrolidin-1-yl)benzamide]
The IC50 of the first is 2.1-fold lower: 8 nM for the first, 17.1 nM for the second.

CCS(=O)(=O)c1ccc(CC(=O)Nc2ccc(N3CCC(Cc4ccc(C(F)(F)F)cc4)C3)cc2)cc1 (stereo not drawn) [Example 1, 2-(4-(Ethylsulfonyl)phenyl)-N-(4-(3-(4-(trifluoromethyl)benzyl)pyrrolidin-1-yl)phenyl) acetamide] and CCS(=O)(=O)c1ccc(CNC(=O)c2ccc(N3CCC(Cc4ccc(C(F)(F)F)cc4)C3)cc2)cc1 (stereo not drawn) [Example 2] are within 1.5-fold of each other in IC50: 12 nM for the first, 14 nM for the second.

First: CCS(=O)(=O)c1ccc(CC(=O)Nc2ccc(C3CN(Cc4ccc(C(F)(F)F)cc4)CC3C)cc2)cc1 (stereo not drawn) [Example 5, 2-(4-(Ethylsulfonyl)phenyl)-N-(4-(4-methyl-1-(4-(trifluoromethyl)benzyl)pyrrolidin-3-yl)phenyl)acetamide]
Second: CCS(=O)(=O)c1ccc(CNC(=O)c2ccc(N3CC(Cc4ccc(C(F)(F)F)cc4)C[C@H]3COC)cc2)cc1 (stereo partly drawn) [Example 7, N-(4-(ethylsulfonyl)benzyl)-4-((2S)-2-(methoxymethyl)-4-(4-(trifluoromethyl)benzyl)pyrrolidin-1-yl)benzamide]
The IC50 of the first is 5.5-fold higher: 47 nM for the first, 8.5 nM for the second.

First: CCS(=O)(=O)c1ccc([C@H](CO)NC(=O)c2ccc(N3CCC(Cc4ccc(C(F)(F)F)cc4)C3)cc2)cc1 (stereo partly drawn) [Example 6, N—((R)-1-(4-(ethylsulfonyl)phenyl)-2-hydroxyethyl)-4-(3-(4-(trifluoromethyl)benzyl)pyrrolidin-1-yl)benzamide]
Second: CCS(=O)(=O)c1ccc([C@H](CO)NC(=O)c2ccc(N3CCC(Oc4ccc(C(F)(F)F)cc4)C3)cc2)cc1 (stereo partly drawn) [Example 12, N—((R)-1-(4-(ethylsulfonyl)phenyl)-2-hydroxyethyl)-4-(3-(4-(trifluoromethyl)phenoxy)pyrrolidin-1-yl)benzamide]
The IC50 of the first is 2.7-fold lower: 9 nM for the first, 24 nM for the second. The first is the more potent here.

Compared with CCS(=O)(=O)c1ccc(CNC(=O)c2ccc(N3CCC(Oc4ccc(C(F)(F)F)cc4)C3)cc2)cc1 (stereo not drawn) [Example 9, N-(4-(ethylsulfonyl)benzyl)-4-(3-(4-(trifluoromethyl)phenoxy)pyrrolidin-1-yl)benzamide], CCS(=O)(=O)c1ccc(CNC(=O)c2ccc(N3CCC(Nc4ccc(C(F)(F)F)cc4)C3)cc2)cc1 (stereo not drawn) [Example 11, N-(4-(ethylsulfonyl)benzyl)-4-(3-((4-(trifluoromethyl)phenyl)amino)pyrrolidin-1-yl)benzamide] is 2.8-fold higher in IC50: 11.9 nM for the first, 33.8 nM for the second.

CCS(=O)(=O)c1ccc(CNC(=O)c2ccc(N3CCC(N(C)c4ccc(C(F)(F)F)cc4)C3)cc2)cc1 (stereo not drawn) [Example 10, N-(4-(ethylsulfonyl)benzyl)-4-(3-(methyl(4-(trifluoromethyl)phenyl)amino)pyrrolidin-1-yl) benzamide] and CCS(=O)(=O)c1ccc(CNC(=O)c2ccc(N3C[C@H](Oc4ccc(C(F)(F)F)cc4)C[C@H]3COC)cc2)cc1 [Example 25, N-(4-(ethylsulfonyl)benzyl)-4-((2S,4R)-2-(methoxymethyl)-4-(4-(trifluoromethyl)phenoxy)pyrrolidin-1-yl)benzamide] are within 1.5-fold of each other in IC50: 23 nM for the first, 20 nM for the second.

First: CCS(=O)(=O)c1ccc([C@H](CO)NC(=O)c2ccc(N3CC[C@H](Oc4ccc(C(F)(F)F)cc4)C3)cc2)cc1 [Example 14, N—((R)-1-(4-(ethylsulfonyl)phenyl)-2-hydroxyethyl)-4-((S)-3-(4-(trifluoromethyl)phenoxy)pyrrolidin-1-yl)benzamide]
Second: CCS(=O)(=O)c1ccc([C@H](CO)NC(=O)c2ccc(N3C[C@H](Oc4ccc(C(F)(F)F)cc4)C[C@H]3CF)cc2)cc1 [Example 24, N—((R)-1-(4-(ethylsulfonyl)phenyl)-2-hydroxyethyl)-4-((2S,4R)-2-(fluoromethyl)-4-(4-(trifluoromethyl)phenoxy)pyrrolidin-1-yl)benzamide]
The IC50 of the first is 1.6-fold lower: 20 nM for the first, 32.8 nM for the second. The first is the more potent here.

CCOC[C@@H]1CC(Oc2ccc(C(F)(F)F)cc2)CN1c1ccc(C(=O)NCc2ccc(S(=O)(=O)CC)cc2)cc1 (stereo partly drawn) [Example 19] and CCOC[C@@H]1CC(Oc2ccc(C(F)(F)F)cc2)CN1c1ccc(C(=O)N[C@@H](CO)c2ccc(S(=O)(=O)CC)cc2)cc1 (stereo partly drawn) [Example 20] are within 1.5-fold of each other in IC50: 18.6 nM for the first, 14.1 nM for the second.

First: CCS(=O)(=O)c1ccc([C@H](CO)NC(=O)c2ccc(N3C[C@H](Oc4ccc(C(F)(F)F)cc4)C[C@H]3COC)cc2)cc1 [Example 26, N—((R)-1-(4-(ethylsulfonyl)phenyl)-2-hydroxyethyl)-4-((2S,4R)-2-(methoxymethyl)-4-(4-(trifluoromethyl)phenoxy)pyrrolidin-1-yl)benzamide]
Second: CCCOC[C@@H]1C[C@@H](Oc2ccc(C(F)(F)F)cc2)CN1c1ccc(C(=O)N[C@@H](CO)c2ccc(S(=O)(=O)CC)cc2)cc1 [Example 27, N—((R)-1-(4-(ethylsulfonyl)phenyl)-2-hydroxyethyl)-4-((2S,4R)-2-(propoxymethyl)-4-(4-(trifluoromethyl)phenoxy)pyrrolidin-1-yl)benzamide]
The IC50 of the first is 2.1-fold lower: 10 nM for the first, 20.8 nM for the second.

CCCCOC[C@@H]1C[C@@H](Oc2ccc(C(F)(F)F)cc2)CN1c1ccc(C(=O)N[C@@H](CO)c2ccc(S(=O)(=O)CC)cc2)cc1 [Example 28] and CCS(=O)(=O)c1ccc([C@H](CO)NC(=O)c2ccc(N3C[C@H](Oc4ccc(C(F)(F)F)cc4)C[C@H]3COCCF)cc2)cc1 [Example 29, N—((R)-1-(4-(ethylsulfonyl)phenyl)-2-hydroxyethyl)-4-((2S,4R)-2-((2-fluoroethoxy)methyl)-4-(4-(trifluoromethyl)phenoxy)pyrrolidin-1-yl)benzamide] are within 1.5-fold of each other in IC50: 13.3 nM for the first, 10.4 nM for the second.

CCS(=O)(=O)c1ccc([C@H](CO)NC(=O)c2ccc(N3C[C@H](Oc4ccc(C(F)(F)F)cc4)C[C@H]3COCC3CC3)cc2)cc1 [Example 31] and CCS(=O)(=O)c1ccc([C@H](CO)NC(=O)c2ccc(N3C[C@H](Oc4ccc(C(F)(F)F)cc4)C[C@H]3COCCC#N)cc2)cc1 [Example 32] are within 1.5-fold of each other in IC50: 17 nM for the first, 19 nM for the second.

CCS(=O)(=O)c1ccc([C@H](CO)NC(=O)c2ccc(N3C[C@H](Oc4ccc(C(F)(F)F)cc4)C[C@H]3CO[C@H]3CCOC3)cc2)cc1 [Example 33, N—((R)-1-(4-(ethylsulfonyl)phenyl)-2-hydroxyethyl)-4-((2S,4R)-2-((((S)-tetrahydrofuran-3-yl)oxy)methyl)-4-(4-(trifluoromethyl)phenoxy)pyrrolidin-1-yl)benzamide] and CCS(=O)(=O)c1ccc([C@H](CO)NC(=O)c2ccc(N3C[C@H](Oc4ccc(C(F)(F)F)cc4)C[C@H]3COC3CCOCC3)cc2)cc1 [Example 34, N—((R)-1-(4-(ethylsulfonyl)phenyl)-2-hydroxyethyl)-4-((2S,4R)-2-(((tetrahydro-2H-pyran-4-yl)oxy)methyl)-4-(4-(trifluoromethyl)phenoxy)pyrrolidin-1-yl)benzamide] are within 1.5-fold of each other in IC50: 132 nM for the first, 133 nM for the second.

CCS(=O)(=O)c1ccc([C@H](CO)NC(=O)c2ccc(N3C[C@H](Oc4ccc(C(F)(F)F)cc4)C[C@H]3CN3CCOC[C@@H]3C)cc2)cc1 [Example 35, N—((R)-1-(4-(ethylsulfonyl)phenyl)-2-hydroxyethyl)-4-((2S,4R)-2-(((S)-3-methylmorpholinyl)methyl)-4-(4-(trifluoromethyl)phenoxy)pyrrolidin-1-yl)benzamide] was tested, and the IC50 was 135 nM.

From patent US20230067159A1, “ROR-GAMMA-T INHIBITOR, PREPARATION METHOD THEREOF AND USE THEREOF” (priority 2020, published 2023)
